Values quoted from earlier work, collected in paper PMC5752104 (Bioorganic & medicinal chemistry, 2017).

What was measured:
GPR55 = GPR55 (Homo sapiens, UniProt Q9Y2T6)
Chain of GPR55 (Q9Y2T6 whole entry): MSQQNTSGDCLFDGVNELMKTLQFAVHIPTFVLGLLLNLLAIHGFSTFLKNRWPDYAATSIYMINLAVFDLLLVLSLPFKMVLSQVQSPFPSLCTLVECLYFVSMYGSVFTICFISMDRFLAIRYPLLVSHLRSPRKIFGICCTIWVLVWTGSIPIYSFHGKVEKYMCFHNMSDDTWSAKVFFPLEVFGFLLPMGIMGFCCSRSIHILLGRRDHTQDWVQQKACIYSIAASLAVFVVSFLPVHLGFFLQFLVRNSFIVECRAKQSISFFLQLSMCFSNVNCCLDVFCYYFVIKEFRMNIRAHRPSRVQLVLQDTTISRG
Chain of GPR55 (P32121 whole entry partner): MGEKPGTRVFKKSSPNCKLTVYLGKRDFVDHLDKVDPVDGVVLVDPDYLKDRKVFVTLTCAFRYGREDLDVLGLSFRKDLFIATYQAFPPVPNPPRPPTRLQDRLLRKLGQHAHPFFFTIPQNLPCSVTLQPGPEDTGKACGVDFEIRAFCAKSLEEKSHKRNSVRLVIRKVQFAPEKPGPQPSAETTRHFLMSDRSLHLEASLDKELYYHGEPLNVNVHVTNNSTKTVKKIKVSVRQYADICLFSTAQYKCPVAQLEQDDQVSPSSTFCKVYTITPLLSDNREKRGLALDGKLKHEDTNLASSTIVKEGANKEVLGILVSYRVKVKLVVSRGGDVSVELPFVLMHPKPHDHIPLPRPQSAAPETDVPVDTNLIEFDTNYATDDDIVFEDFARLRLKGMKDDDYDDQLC

| Structure (SMILES) | effect at GPR55 (GPR55) | activity at CB1 (CB1) | activity at CB2 (CB2) | activity at GPR35 (GPR35) |
| --- | --- | --- | --- | --- |
| CCCCCCC(C)(C)c1ccc([C@@H]2C[C@H](O)CC[C@H]2CCCO)c(O)c1 [CP55940] | acts as an antagonist | – | – | – |
| COc1ccccc1/C=C/C(=O)NC(=S)Nc1ccc(S(=O)(=O)N(C)c2ccccc2)cc1 [6fv, (E)-3-(2-Methoxyphenyl)-N-((4-(N-methyl-N-phenylsulfamoyl)phenyl)carbamothioyl)acrylamide] | – | no activity | no activity | no activity |
| Cc1c(C(=O)NN2CCCCC2)nn(-c2ccc(Cl)cc2Cl)c1-c1ccc(I)cc1 [AM251] | strongly activates GPR55 | – | – | – |
